From US20200360349A1, “ADMINISTRATION OF MONOBACTAM FOR THE TREATMENT OF URINARY TRACT INFECTION” (Novartis AG, priority 2017, published 2020)

Tests used:
[1] = Safety and tolerability of single doses of LYS228; assay type: in vivo, human; details: following single doses up to 6000 mg
Description: and including any ionic species thereof is a compound with antibacterial activity (See PCT Application No. PCT/US2015/022011, which is incorporated herein by reference). […] LYS228 kills bacteria by inhibiting cell wall synthesis through covalent modification of the active site serine of penicillin binding protein 3 (PBP3). Aztreonam is the only monobactam approved for clinical use (Tunkel and Scheld Infect Control Hosp Epidemiol p. 486-94, 1990). MBL-expressing Enterobacteriaceae can inactivate all classes of (3-lactam drugs, except monocyclic (3-lactams like the monobactams. MBLs are frequently co-expressed with SBLs. The prevalence of strains expressing the New Delhi metal-β-lactamase-1 (NDM-1) is as high as 12% in clinical isolates from patients with invasive infections in India (Biedenbach et al Antimicrob. Agents Chemother. p. 826-30, 2015, Rahman et al India. Int. J. Antimicrob. Agents p. 30-7, 2014); infections caused by strains expressing NDM-1 and other MBLs have been detected globally, including in Europe, the United States, China, and Japan (Kazmierczak et al Antimicrob. Agents Chemother. p. 1067-78, 2016). […]

[2] = tested on: Gram-negative bacteria, including strains that show resistance to other monobactams; details: cited from earlier work

For Nc1nc(/C(=N/OC2(C(=O)O)CC2)C(=O)N[C@@H]2C(=O)N(S(=O)(=O)O)[C@@H]2CN2CCOC2=O)cs1 [LYS228, 1-(((Z)-(1-(2-aminothiazol-4-yl)-2-oxo-2-(((3S,4R)-2-oxo-4-((2-oxooxazolidin-3-yl)methyl)-1-sulfoazetidin-3-yl)amino)ethylidene)amino)oxy)cyclopropanecarboxylic acid], the safety and tolerability [1] is listed as “safe and well-tolerated” and the “activity against Gram-negative bacteria” value [2] is listed as “strong activity”.
